According to the supplement of paper PMC10307832:

Legend:
Test in all cases: relative viability (nuclei count vs DMSO), 5 days (fraction); higher = more cells survive
Sunitinib + Bortezomib = compound: CCN(CC)CCNC(=O)c1c(C)[nH]c(/C=C2\C(=O)Nc3ccc(F)cc32)c1C [Sunitinib] + CC(C)C[C@H](NC(=O)[C@H](Cc1ccccc1)NC(=O)c1cnccn1)B(O)O [Bortezomib] (partner 0.002 µM)
Method in brief: (§1)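 Dosing by pin tool came one day after lung cancer cell lines were seeded in 1536-well plates, using either one drug or a fixed anchor-drug dose plus five library-drug doses (not always all listed) in √10 steps. After 5 days, nuclei were counted on 4× images. Relative viability is treated-well nuclei count divided by vehicle-well nuclei count, and values are medians of duplicate plates.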

Sunitinib + Alpelisib = compound: CCN(CC)CCNC(=O)c1c(C)[nH]c(/C=C2\C(=O)Nc3ccc(F)cc32)c1C [Sunitinib] + Cc1nc(NC(=O)N2CCC[C@H]2C(N)=O)sc1-c1ccnc(C(C)(C)C(F)(F)F)c1 [Alpelisib] (partner 2 µM)
Method in brief: as §1

Sunitinib + Pemetrexed = compound: CCN(CC)CCNC(=O)c1c(C)[nH]c(/C=C2\C(=O)Nc3ccc(F)cc32)c1C [Sunitinib] + Nc1nc2[nH]cc(CCc3ccc(C(=O)N[C@@H](CCC(=O)O)C(=O)O)cc3)c2c(=O)[nH]1 [Pemetrexed] (partner 0.2 µM)
Method in brief: as §1

Sunitinib + Olaparib = compound: CCN(CC)CCNC(=O)c1c(C)[nH]c(/C=C2\C(=O)Nc3ccc(F)cc32)c1C [Sunitinib] + O=C(c1cc(Cc2n[nH]c(=O)c3ccccc23)ccc1F)N1CCN(C(=O)C2CC2)CC1 [Olaparib] (partner 8 µM)
Method in brief: as §1

Row | Cell Line | relative viability (Sunitinib + Bortezomib; first compound 0.02 µM) | relative viability (Sunitinib + Bortezomib; first compound 0.06325 µM) | relative viability (Sunitinib + Bortezomib; first compound 0.2 µM) | relative viability (Sunitinib + Bortezomib; first compound 0.6325 µM) | relative viability (Sunitinib + Bortezomib; first compound 2 µM) | relative viability (Sunitinib + Alpelisib; first compound 0.02 µM) | relative viability (Sunitinib + Alpelisib; first compound 0.2 µM) | relative viability (Sunitinib + Alpelisib; first compound 2 µM) | relative viability (Sunitinib + Pemetrexed; first compound 0.02 µM) | relative viability (Sunitinib + Pemetrexed; first compound 0.06325 µM) | relative viability (Sunitinib + Pemetrexed; first compound 0.2 µM) | relative viability (Sunitinib + Pemetrexed; first compound 0.6325 µM) | relative viability (Sunitinib + Olaparib; first compound 0.02 µM) | relative viability (Sunitinib + Olaparib; first compound 0.06325 µM) | relative viability (Sunitinib + Olaparib; first compound 0.2 µM) | relative viability (Sunitinib + Olaparib; first compound 0.6325 µM) | relative viability (Sunitinib + Olaparib; first compound 2 µM) | relative viability (Sunitinib + Alpelisib; first compound 0.06325 µM) | relative viability (Sunitinib + Alpelisib; first compound 0.6325 µM) | relative viability (Sunitinib + Pemetrexed; first compound 2 µM)
1 | HCC-78 | 0.508 | 0.554 | 0.518 | 0.464 | 0.494 | 0.364 | 0.321 | 0.419 | 0.914 | 0.927 | 0.949 | 0.93 | 0.765 | 0.82 | 0.865 | 0.866 | 0.891 | – | – | –
2 | HCC-366 | 0.98 | 1.05 | 1.04 | 1.15 | 0.989 | 0.353 | 0.656 | 0.431 | 0.154 | 0.168 | 0.168 | 0.194 | 0.343 | 0.355 | 0.482 | 0.449 | 0.42 | 0.466 | 0.528 | 0.497
3 | HCC-827 | 1.05 | 1.15 | 1.04 | – | 1.12 | 1.02 | 1.01 | 0.887 | 0.265 | 0.29 | 0.28 | 0.584 | 0.722 | 0.696 | 0.622 | 0.648 | 0.597 | 1.04 | 1.04 | 0.289
4 | HOP-62 | 0.798 | 0.83 | 0.947 | 0.871 | 1.13 | 0.964 | 1.04 | 0.919 | 0.33 | 0.366 | 0.337 | 0.369 | 0.453 | 0.374 | 0.449 | 0.472 | 0.63 | 0.851 | 1.05 | 0.417
5 | IA-LM | 0.831 | 0.85 | 0.868 | 1.12 | 1.18 | 0.645 | 0.773 | 0.87 | – | – | – | – | 0.826 | 0.973 | 0.842 | – | 0.981 | 0.812 | 0.919 | –
6 | LC-2-ad | 0.883 | 1.04 | 1.05 | 1.07 | 0.932 | 0.897 | – | 0.605 | 0.266 | 0.275 | 0.291 | 0.303 | 0.68 | 0.746 | 0.749 | 0.729 | 0.825 | 0.613 | 0.891 | 0.26
7 | LCLC-97TM1 | 0.653 | 0.967 | 0.713 | 0.774 | 0.757 | 0.24 | – | 0.286 | 0.167 | 0.198 | 0.164 | 0.163 | 0.377 | 0.401 | 0.548 | 0.477 | 0.442 | 0.351 | 0.276 | 0.212
8 | LK-2 | – | – | – | – | – | 0.942 | 1.28 | 0.916 | 0.266 | 0.335 | 0.31 | 0.254 | 0.668 | 0.82 | 0.926 | 0.617 | 0.6 | 0.906 | 1.18 | 0.292
9 | NCI-H358 | – | – | – | – | – | 0.902 | – | 0.451 | 0.178 | 0.181 | 0.177 | 0.177 | 0.452 | 0.617 | 0.756 | 0.666 | 0.471 | 0.803 | 0.762 | 0.167
10 | NCI-H522 | – | – | – | – | – | – | – | – | 0.861 | 1.12 | 0.915 | 0.858 | 0.623 | 0.574 | 0.75 | 0.616 | 0.641 | – | – | 0.999
11 | NCI-H727 | 0.89 | 1.07 | 0.805 | 1.05 | 0.817 | 0.532 | 0.647 | 0.537 | – | – | – | – | 0.747 | 0.649 | 0.717 | 0.593 | 0.778 | 0.546 | 0.559 | –
12 | NCI-H1299 | 0.999 | 1.06 | 1.01 | – | 1 | 1.02 | 1.06 | 1.06 | – | – | – | – | 0.935 | 0.977 | 0.998 | 1.02 | 0.991 | – | 1.08 | –
13 | NCI-H1395 | – | – | – | – | – | 0.995 | 1.72 | 1.05 | 0.845 | 0.937 | 0.935 | 1.1 | 0.441 | 0.438 | 0.478 | 0.484 | 0.482 | 1.14 | 1.31 | 0.91
14 | NCI-H1563 | 0.752 | 0.918 | 0.897 | 0.906 | 0.771 | 0.984 | 0.884 | 0.965 | 0.759 | 0.727 | 0.782 | 0.721 | – | – | – | – | – | 0.952 | 0.93 | 0.852
15 | NCI-H1648 | – | – | – | – | – | – | – | – | 0.897 | 0.737 | 0.898 | 0.704 | 1.11 | 0.583 | – | 0.751 | 0.707 | – | – | 0.835
16 | NCI-H1650 | 0.194 | 0.226 | 0.192 | 0.203 | 0.211 | – | – | – | 0.399 | 0.307 | 0.411 | 0.346 | 0.744 | 0.742 | 0.822 | 0.791 | 0.738 | – | – | 0.448
17 | NCI-H1703 | 0.249 | 0.218 | 0.176 | 0.19 | 0.176 | 0.211 | 0.199 | 0.188 | – | – | – | – | 0.229 | 0.267 | 0.251 | 0.154 | 0.157 | 0.161 | 0.154 | –
18 | NCI-H1793 | – | – | – | – | – | – | 0.823 | 0.787 | – | – | 1.29 | 0.949 | – | 0.726 | 1.03 | 1 | 0.706 | 0.727 | 0.696 | 0.831
19 | NCI-H1944 | – | – | – | – | – | 0.798 | 1.02 | – | 0.588 | – | 0.772 | 0.684 | 0.39 | 0.414 | 0.473 | 0.43 | 0.447 | 0.883 | 0.964 | 0.655
20 | NCI-H2170 | – | – | – | – | – | 0.757 | 0.998 | 0.777 | 0.259 | 0.274 | 0.432 | 0.291 | 0.593 | 0.571 | 0.651 | 0.605 | 0.535 | 0.782 | 0.914 | 0.275
21 | NCI-H2342 | – | – | – | – | – | – | – | – | 0.731 | 0.821 | 0.808 | 0.739 | 0.48 | 0.456 | 0.527 | 0.475 | 0.414 | – | – | 0.843
22 | SK-MES-1 | – | – | – | – | – | 0.885 | 0.86 | 0.927 | 0.851 | 0.946 | 1.09 | 1.13 | 0.643 | 0.7 | 0.877 | – | 0.678 | 1.02 | 1.02 | 0.903
